21 compounds from ChEMBL document CHEMBL3217469, “Redesigning the designer drug ecstasy: non-psychoactive MDMA analogues exhibiting Burkitt's lymphoma cytotoxicity” (Medchemcomm, 2010) can be followed below.

Data set [1] in a line: Cytotoxicity against human L3055 cells assessed as reduction in [3H]thymidine incorporation after 24 hrs by propidium iodide staining-based assay. Format: functional, cell-based.
A short description of data set [2]: Ratio of MDMA IC50 to compound IC50 for human L3055 cells. The class given is functional.
A further data set relates to SH-SY5Y. Kind of data set: Neurotoxicity against human SH-SY5Y cells at 1 to 600 uM after 24 hrs by Alamar Blue assay. The class given is toxicity, cell-based.
Data set [3] has as its target Sodium-dependent serotonin transporter (Rattus norvegicus, UniProt P31652). Kind of data set: Displacement of [3H]citalopram from SERT in Sprague-Dawley rat whole brain after 60 mins by scintillation counting analysis. For orientation: Loss of bound radioactivity is the signal in a displacement assay; it reports binding, not function.
The target in the next data set is Transporter (Rattus norvegicus, UniProt Q63380). Kind of data set: Displacement of [3H]nisoxetine from NET in Sprague-Dawley rat cerebellum after 60 mins by scintillation counting analysis.
For data set [4], the target named is Sodium-dependent dopamine transporter (Rattus norvegicus, UniProt P23977). As to the kind of experiment: Displacement of [3H]GBR12935 from DAT in Sprague-Dawley rat striatum after 45 mins by scintillation counting analysis.
Data set [5] concerns the target T1, 5-hydroxytryptamine receptor 1A (Rattus norvegicus, UniProt P19327).
T1 sequence (P19327 whole entry): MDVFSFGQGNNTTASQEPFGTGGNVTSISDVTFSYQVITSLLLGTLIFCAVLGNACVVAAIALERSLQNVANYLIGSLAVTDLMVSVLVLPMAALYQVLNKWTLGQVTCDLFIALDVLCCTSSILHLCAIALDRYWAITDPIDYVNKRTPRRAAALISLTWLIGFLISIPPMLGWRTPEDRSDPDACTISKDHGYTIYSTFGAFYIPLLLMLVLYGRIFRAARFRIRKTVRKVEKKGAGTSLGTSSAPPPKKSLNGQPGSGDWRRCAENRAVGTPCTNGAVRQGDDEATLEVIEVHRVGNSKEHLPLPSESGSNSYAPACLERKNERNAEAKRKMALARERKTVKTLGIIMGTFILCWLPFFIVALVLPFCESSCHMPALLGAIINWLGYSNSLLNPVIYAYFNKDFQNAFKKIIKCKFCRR
Kind of data set: Displacement of [3H]WAY100635 from 5-HT1A receptor in Sprague-Dawley rat cerebral cortex after 60 mins by scintillation counting analysis. The class given is tissue-based.

The target of a further data set is Serotonin 1B/1D receptor (Rattus norvegicus, UniProt P28564+P28565). Kind of data set: Displacement of [3H]GR125743 from 5-HT1B/1D receptor in Sprague-Dawley rat whole brain after 60 mins by scintillation counting analysis.
Data set [6] deals with T2, 5-hydroxytryptamine receptor 2C (Rattus norvegicus, UniProt P08909).
T2 sequence (P08909 whole entry): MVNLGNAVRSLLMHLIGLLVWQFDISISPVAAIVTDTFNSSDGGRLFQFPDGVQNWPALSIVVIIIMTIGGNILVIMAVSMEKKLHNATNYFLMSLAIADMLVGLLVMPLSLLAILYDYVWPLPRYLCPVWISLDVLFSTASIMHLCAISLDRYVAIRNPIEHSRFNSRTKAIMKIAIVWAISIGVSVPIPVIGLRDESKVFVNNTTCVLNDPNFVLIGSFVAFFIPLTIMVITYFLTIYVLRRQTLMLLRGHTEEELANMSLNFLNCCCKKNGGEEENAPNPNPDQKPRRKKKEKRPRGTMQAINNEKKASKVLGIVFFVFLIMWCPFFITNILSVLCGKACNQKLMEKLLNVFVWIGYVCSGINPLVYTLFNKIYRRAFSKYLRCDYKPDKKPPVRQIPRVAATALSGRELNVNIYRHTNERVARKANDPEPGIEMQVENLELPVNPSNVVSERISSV
As to the kind of experiment: Displacement of [3H]mesulergine from 5-HT2C receptor in Sprague-Dawley rat whole brain after 60 mins by scintillation counting analysis.

Data set [7] concerns Rattus norvegicus. As to the kind of experiment: Induction of psychotic activity in Wistar rat assessed as reduction in prepulse inhibition of acoustic startle reflex at 4.4 to 88 umol/kg. Format: organism-based. The following applies: in vivo.
Data set [8] deals with 5-hydroxytryptamine receptor 2A (Rattus norvegicus, UniProt P14842). As to the kind of experiment: Displacement of [3H]-ketanserin from 5-HT2A receptor in Sprague-Dawley rat cerebral cortex after 45 mins by scintillation counting analysis. Format: tissue-based.
Data set [9] is filed under the species Rattus norvegicus. Kind of data set: Induction of psychotic activity in Wistar rat assessed as reduction in prepulse inhibition of acoustic startle reflex. The class given is organism-based. To be noted: in vivo.

Each structure is given as a SMILES string.

The term IC50 denotes the concentration at which inhibition is half-maximal. As a reminder, the Ki is a measure of affinity in units of concentration, obtained from inhibition or displacement.

Chain of Sodium-dependent dopamine transporter (P23977 whole entry): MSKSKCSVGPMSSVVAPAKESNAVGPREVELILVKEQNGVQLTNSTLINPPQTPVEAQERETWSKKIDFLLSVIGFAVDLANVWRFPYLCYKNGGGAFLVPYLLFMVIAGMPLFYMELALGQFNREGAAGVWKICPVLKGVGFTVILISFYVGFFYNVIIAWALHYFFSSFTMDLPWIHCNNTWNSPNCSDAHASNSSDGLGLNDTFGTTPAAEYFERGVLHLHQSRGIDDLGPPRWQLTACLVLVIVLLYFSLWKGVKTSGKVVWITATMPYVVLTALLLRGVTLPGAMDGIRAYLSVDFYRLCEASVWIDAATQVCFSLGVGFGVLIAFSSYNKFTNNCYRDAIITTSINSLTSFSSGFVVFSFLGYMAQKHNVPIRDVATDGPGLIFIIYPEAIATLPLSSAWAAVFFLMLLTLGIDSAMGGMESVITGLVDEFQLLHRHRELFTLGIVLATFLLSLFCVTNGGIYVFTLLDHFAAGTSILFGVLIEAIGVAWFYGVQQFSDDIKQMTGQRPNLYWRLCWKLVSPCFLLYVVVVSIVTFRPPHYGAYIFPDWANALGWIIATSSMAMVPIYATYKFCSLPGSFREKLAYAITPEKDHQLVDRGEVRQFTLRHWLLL
Chain of Transporter (Q63380 whole entry): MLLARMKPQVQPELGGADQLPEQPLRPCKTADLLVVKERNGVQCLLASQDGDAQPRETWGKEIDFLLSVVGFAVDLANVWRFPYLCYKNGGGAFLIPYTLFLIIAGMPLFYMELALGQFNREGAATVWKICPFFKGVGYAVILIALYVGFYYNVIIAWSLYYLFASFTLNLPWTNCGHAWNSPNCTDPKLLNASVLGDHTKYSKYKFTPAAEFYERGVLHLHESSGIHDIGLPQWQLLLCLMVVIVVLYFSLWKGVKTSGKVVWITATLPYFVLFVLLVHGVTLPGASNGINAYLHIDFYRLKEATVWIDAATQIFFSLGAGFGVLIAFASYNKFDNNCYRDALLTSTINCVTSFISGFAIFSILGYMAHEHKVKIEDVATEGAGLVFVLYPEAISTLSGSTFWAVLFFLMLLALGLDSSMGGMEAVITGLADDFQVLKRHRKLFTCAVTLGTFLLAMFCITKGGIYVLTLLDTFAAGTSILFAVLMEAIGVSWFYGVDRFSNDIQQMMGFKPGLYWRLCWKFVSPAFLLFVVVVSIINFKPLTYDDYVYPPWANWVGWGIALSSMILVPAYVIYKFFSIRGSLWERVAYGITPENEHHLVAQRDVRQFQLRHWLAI
Chain of Sodium-dependent serotonin transporter (P31652 whole entry): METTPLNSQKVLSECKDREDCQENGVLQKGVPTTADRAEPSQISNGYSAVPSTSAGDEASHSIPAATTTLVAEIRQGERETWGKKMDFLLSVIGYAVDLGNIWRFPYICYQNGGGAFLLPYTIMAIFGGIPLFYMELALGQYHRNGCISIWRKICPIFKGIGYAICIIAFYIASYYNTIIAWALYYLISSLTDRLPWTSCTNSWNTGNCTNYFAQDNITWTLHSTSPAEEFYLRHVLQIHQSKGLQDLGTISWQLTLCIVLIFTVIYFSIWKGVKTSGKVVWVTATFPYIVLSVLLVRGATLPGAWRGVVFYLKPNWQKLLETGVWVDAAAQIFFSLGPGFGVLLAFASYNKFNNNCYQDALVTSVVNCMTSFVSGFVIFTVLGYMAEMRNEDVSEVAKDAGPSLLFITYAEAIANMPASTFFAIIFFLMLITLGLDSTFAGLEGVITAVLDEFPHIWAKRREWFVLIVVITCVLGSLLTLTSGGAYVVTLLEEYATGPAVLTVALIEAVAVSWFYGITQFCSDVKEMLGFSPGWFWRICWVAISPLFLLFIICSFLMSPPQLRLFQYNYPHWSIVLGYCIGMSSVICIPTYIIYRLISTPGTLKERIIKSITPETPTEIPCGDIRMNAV
Chain of 5-hydroxytryptamine receptor 2A (P14842 whole entry): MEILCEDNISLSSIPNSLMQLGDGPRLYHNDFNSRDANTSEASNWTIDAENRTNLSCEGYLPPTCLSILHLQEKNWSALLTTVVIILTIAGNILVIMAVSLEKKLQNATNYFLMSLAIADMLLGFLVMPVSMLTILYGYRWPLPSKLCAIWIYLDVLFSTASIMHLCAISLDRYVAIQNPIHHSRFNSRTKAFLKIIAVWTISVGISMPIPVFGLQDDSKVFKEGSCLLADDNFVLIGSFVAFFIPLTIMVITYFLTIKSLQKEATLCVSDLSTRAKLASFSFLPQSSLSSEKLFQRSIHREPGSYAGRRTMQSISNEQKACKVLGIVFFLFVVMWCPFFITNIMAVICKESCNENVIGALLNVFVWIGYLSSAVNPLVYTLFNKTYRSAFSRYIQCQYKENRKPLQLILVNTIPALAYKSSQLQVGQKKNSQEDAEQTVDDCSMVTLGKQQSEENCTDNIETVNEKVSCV

Regarding `CNC(Cc1ccc2c(c1)OCO2)Cc1ccc2c(c1)OCO2`, in data set [1], the IC50 was found to be 36.7 µM.

For `CNC(Cc1ccc2c(c1)OCO2)c1ccccc1C` (racemic), the IC50 in data set [1] is 65 µM.

For `CNC(Cc1ccc2c(c1)OCO2)c1cccc(C)c1` (racemic), the IC50 in data set [1] came to 51 µM.

As to `CNC(Cc1ccc2c(c1)OCO2)c1ccc(C)cc1` (racemic), the IC50 in data set [1] was found to be 42 µM.

On to `CNC(Cc1ccc2c(c1)OCO2)c1ccccc1OC` (racemic), for which the IC50 in data set [1] turned out to be 92 µM.

On to `CNC(Cc1ccc2c(c1)OCO2)c1cccc(OC)c1` (racemic), for which, in data set [1], the IC50 was determined as 80 µM.

For `CNC(Cc1ccc2c(c1)OCO2)c1ccc(OC)cc1` (racemic), the IC50 in [1] came out at 69 µM.

On to `CNC(Cc1ccc2c(c1)OCO2)c1ccc(F)cc1` (racemic), for which the IC50 in data set [1] was 63 µM.

As for `CNC(Cc1ccc2c(c1)OCO2)C1CCCCC1` (racemic), in data set [1], the IC50 amounted to 81 µM.

Take `CNC(Cc1ccccc1)Cc1ccc2c(c1)OCO2` (racemic): the IC50 in data set [1] was found to be 69 µM.

For `CNC(Cc1ccc2c(c1)OCO2)c1cccc2ccccc12.Cl` (racemic), the 50% inhibitory concentration (IC50) in [1] stood at 12.6 µM. In data set [2], the “Ratio IC50” value was determined as 100. The Activity result in the data set on SH-SY5Y was “Non-toxic”.

On to `CNC(Cc1ccc2c(c1)OCO2)c1ccc2ccccc2c1.Cl` (racemic), for which, in [1], the IC50 worked out at 6.6 µM. Besides, in data set [2], the “Ratio IC50” value was 100. Besides, in the data set on SH-SY5Y, the Activity entry is recorded as “Non-toxic”.

As for `CNC(Cc1ccc2c(c1)OCO2)c1ccc(-c2ccccc2)cc1` (racemic), in [1], the IC50 turned out to be 6 µM.

Regarding `CCC(Cc1ccc2c(c1)OCO2)NC` (racemic), the IC50 in data set [1] stood at 707 µM.

Consider `CCCC(Cc1ccc2c(c1)OCO2)NC` (racemic), for which the IC50 in data set [1] was found to be 379 µM.

On to `CNC(Cc1ccc2c(c1)OCO2)C1CC1` (racemic), for which the IC50 in [1] stood at 801 µM.

Turning to `CNC(Cc1ccc2c(c1)OCO2)C(C)C` (racemic), the IC50 in data set [1] came to 651 µM.

For the compound `CNC(Cc1ccc2c(c1)OCO2)C(C)(C)C` (racemic), the IC50 in data set [1] came out at 447 µM.

For `CNC(Cc1ccc2c(c1)OCO2)c1ccccc1.Cl` (racemic), the Ki in [3] was 1.32 µM; on Transporter it was 0.7 µM; in data set [4], over 10 µM; in data set [5], over 10 µM; on Serotonin 1B/1D receptor, over 10 µM; in data set [6], over 10 µM. Moreover, the Ki in data set [8] was found to be 1.23 µM. Moreover, in data set [1], the IC50 worked out at 76 µM. For the same compound, the “Ratio IC50” value in [2] was 7. Also, the Activity entry was “Toxic” in the data set with SH-SY5Y and “Non-toxic” with Rattus norvegicus [7].

On to `CNC(C)Cc1ccc2c(c1)OCO2.Cl` (centres undefined) [MIDOMAFETAMINE HYDROCHLORIDE], for which the Ki in [3] is 0.21 µM; on Transporter, over 10 µM; in [4], over 10 µM; in data set [5], over 10 µM; at Serotonin 1B/1D receptor, over 10 µM; in [6], over 10 µM. This compound also registered a Ki in data set [8] of over 10 µM. In addition, the IC50 in [1] amounted to 507 µM. The Activity result is “Toxic” with SH-SY5Y and “Dose-dependent effect” in the data set filed under Rattus norvegicus [9].

On to `COc1ccc(CC(C)N)cc1` (centres undefined) [PARA-METHOXYAMPHETAMINE], for which, in the data set filed under Rattus norvegicus [9], the Activity entry is “Dose-dependent effect”.
